Values quoted from earlier work as cited in patent US8748570B2, “Insulin analogues” (priority 2010, dated 2014).
Like-named read-outs stand apart in the source and are kept apart here.

Tests used:
IGF-IR = IGF-IR (Homo sapiens, UniProt P08069)
[1] = system: cultured human lymphocytes

In the case of “Glargine insulin: long-acting insulin: two arginines added to the B-chain C-terminus, glycine at A21”, the IGF-IR binding (IGF-IR) is listed as “enhanced”, the duration of activity (in vivo) is listed as 24 h and the “peak time of effect” value (in vivo) is listed as “no peak effect”.
For “A7, B7-(2,7-diaminosuberoyl]-des-(B26-B30)-insulin B25-amide [dicarba-A7-B7-insulin]”, the Relative binding affinity [1] is given as 0.1 % of human insulin, the EC50 (isolated rat adipocytes; lipogenesis, read-out: ED50 (the source's name)) is given as 4.8 nM and the “relative potency compared to human insulin” value (isolated rat adipocytes; on a molar basis) is given as 0.66%. The “relative potency compared to human insulin” value (isolated rat adipocytes; on a weight basis) was 0.72%.
In the case of “detemir: long-acting insulin with a fatty acid chain on the ε-amino group of LysB29”, the in vivo potency is given as “reduced”.
